Measured values taken from ChEMBL document CHEMBL3638693, “Pyrazole compound and pharmaceutical use thereof” (2014).

Molecular target: T1, Sodium/glucose cotransporter 1 (Homo sapiens, UniProt P13866)
T1 sequence (P13866 whole entry): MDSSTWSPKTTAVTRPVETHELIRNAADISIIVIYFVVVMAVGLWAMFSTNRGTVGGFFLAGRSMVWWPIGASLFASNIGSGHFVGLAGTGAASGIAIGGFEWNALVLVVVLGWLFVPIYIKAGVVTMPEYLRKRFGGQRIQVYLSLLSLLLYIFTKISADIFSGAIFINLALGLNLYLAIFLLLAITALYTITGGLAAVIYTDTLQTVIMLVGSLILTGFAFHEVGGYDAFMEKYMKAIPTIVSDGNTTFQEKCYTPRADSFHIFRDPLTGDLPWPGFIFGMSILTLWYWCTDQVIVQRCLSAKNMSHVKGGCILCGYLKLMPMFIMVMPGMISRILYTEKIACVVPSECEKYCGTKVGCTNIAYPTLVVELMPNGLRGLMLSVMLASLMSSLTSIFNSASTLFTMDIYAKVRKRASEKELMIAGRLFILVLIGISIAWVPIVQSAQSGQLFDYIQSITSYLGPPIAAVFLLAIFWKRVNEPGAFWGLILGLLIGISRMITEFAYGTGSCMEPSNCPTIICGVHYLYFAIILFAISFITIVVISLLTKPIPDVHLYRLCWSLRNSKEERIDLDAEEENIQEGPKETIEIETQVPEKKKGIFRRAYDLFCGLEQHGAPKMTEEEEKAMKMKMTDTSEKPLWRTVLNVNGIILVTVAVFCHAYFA
Assay: Inhibition Assay: The stable cell line expressing human SGLT1 was seeded at 5x10^4 cells/well on BioCoat Poly-D-Lysine 96 well plate with Lid (Becton Dickinson and Company) and cultured at 37 C. under 5% CO2 overnight. The medium was replaced with 100 uL/well of a Na (+) buffer (140 mM choline chloride, 2 mM KCl, 1 mM MgCl2, 1 mM CaCl2, 10 mM HEPES, 5 mM Tris, pH7.4) followed by incubation for 20 minutes at 37 C. under 5% CO2. After removing the Na (+) buffer, a test compound solution which was prepared from Na (+) buffer (140 mM NaCl, 2 mM KCl, 1 mM MgCl2, 1 mM CaCl2, 10 mM HEPES, 5 mM Tris, pH7.4) containing BSA was added thereto at 40 uL/well. In addition, Na (+) buffer containing 8 kBq of 14C-AMG and 2 mM AMG was added thereto at 40 uL/well, and was mixed well. Na (+) buffer containing BSA was added to a blank well at 40 uL/well and additionally adding a Na (+) buffer containing 8 kBq of 14C-AMG and 2 mM AMG, and was mixed well.

O=C1C[C@H](C(=O)Nc2cc(-c3cccc(COCC(F)(F)F)c3)n(-c3ccc(F)cc3)n2)CN1
IC50: 22 nM
